How the values were obtained:
[1] = system: purple nutsedge; assay: Test D purple nutsedge; type: in vivo, Cyperus rotundus; settings: Postemergence, 0 to 100 scale
[2] = system: common groundsel; assay: Test D common groundsel; type: in vivo, Senecio vulgaris; settings: Postemergence, 0 to 100 scale
[3] = system: Spanishneedles; assay: Test D Spanishneedles; type: in vivo, Bidens bipinnata; settings: Postemergence, 0 to 100 scale
[4] = system: dallisgrass; assay: Test D dallisgrass; type: in vivo, Paspalum dilatatum; settings: Postemergence, 0 to 100 scale
[5] = system: pitted morningglory; assay: Test D pitted morningglory; type: in vivo, Ipomoea lacunosa; settings: Postemergence, 0 to 100 scale
[6] = system: Green foxtail; assay: Test D green foxtail; type: in vivo; settings: Postemergence, 0 to 100 scale, 0 no injury, 100 complete control
[7] = system: tall mallow; assay: Test D tall mallow; type: in vivo, Malva sylvestris; settings: Postemergence, 0 to 100 scale
[8] = system: cotton; assay: Test C postemergence cotton; type: in vivo, Gossypium hirsutum; settings: 0 to 100 scale, 0 no effect, 100 complete control
Protocol: (§1) Compounds evaluated in this test were formulated in a non-phytotoxic solvent mixture which included a surfactant and applied to plants that were grown for various periods of time before treatment (postemergence application). A mixture of sandy loam soil and greenhouse potting mix in a 60:40 ratio was used for the postemergence test.
(§2) Plantings of these crops and weed species were adjusted to produce plants of appropriate size for the postemergence test. All plant species were grown using normal greenhouse practices. Crop and weed species include arrowleaf sida (Sida rhombifolia), barnyardgrass (Echinochloa crus-galli), cocklebur (Xanthium strumarium), common ragweed (Ambrosia elatior), corn (Zea mays), cotton (Gossypium hirsutum), eastern black nightshade (Solanum ptycanthum), fall panicum (Panicum dichotomiflorum), field bindweed (Convolvulus arvensis), giant foxtail (Setaria faberii), hairy beggarticks (Bidens pilosa), ivyleaf morningglory (Ipomoea hederacea), johnsongrass (Sorghum halepense), ladysthumb smartweed (Polygonum persicaria), lambsquarters (Chenopodium album), large crabgrass (Digitaria sanguinalis), purple nutsedge (Cyperus rotundus), redroot pigweed (Amaranthus retroflexus), soybean (Glycine max), surinam grass (Brachiaria decumbens), velvetleaf (Abutilon theophrasti) and wild poinsettia (Euphorbia heterophylla).
(§3) Treated plants and untreated controls were maintained in a greenhouse for approximately 14, to 21 days, after which all treated plants were compared to untreated controls and visually evaluated. Plant response ratings, summarized in Table C, were based upon a 0 to 100 scale where 0 was no effect and 100 was complete control. A dash response (−) means no test result.

[9] = system: giant foxtail; assay: Test C postemergence giant foxtail; type: in vivo, Setaria faberii; settings: 0 to 100 scale, 0 no effect, 100 complete control
Protocol: as §1, §2, §3

[10] = system: ladysthumb smartweed; assay: Test C postemergence ladysthumb smartweed; type: in vivo, Polygonum persicaria; settings: 0 to 100 scale, 0 no effect, 100 complete control
In short: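 In this greenhouse assay, treated and untreated plants were kept for approximately 14 to 21 days following postemergence application, then rated by eye on a scale from 0 (no effect) to 100 (complete control).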

[11] = system: kochia; assay: Test E kochia; type: in vivo, Kochia scoparia; settings: Postemergence
In short: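 Postemergence: spray at 1–4 leaf stage, soil 60:40 sandy loam:potting mix; solvent + surfactant formulation; greenhouse 21–28 d; visual injury vs untreated controls.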

[12] = system: deadnettle; assay: Test E deadnettle; type: in vivo, Lamium amplexicaule; settings: Preemergence
[13] = system: black nightshade; assay: Test E black nightshade; type: in vivo, Solanum nigra; settings: Preemergence
[14] = system: redroot pigweed; assay: Test E redroot pigweed; type: in vivo, Amaranthus retroflexus; settings: Preemergence
[15] = system: lambsquarters; assay: Test E lambsquarters; type: in vivo, Chenopodium album; settings: Preemergence
[16] = system: galium; assay: Test E galium; type: in vivo, Galium aparine; settings: Preemergence
[17] = system: sunflower; assay: Test E sunflower; type: in vivo, Helianthus annuus; settings: Preemergence
[18] = system: annual bluegrass; assay: Test E annual bluegrass; type: in vivo, Poa annua; settings: Preemergence
[19] = system: rape; assay: Test E rape; type: in vivo, Brassica napus; settings: Preemergence
[20] = system: sugar beet; assay: Test E sugar beet; type: in vivo, Beta vulgaris; settings: Preemergence
[21] = Rate 16 g/ha, 0 no injury, 100 complete control
[22] = Rate 32 g/ha, 0 no injury, 100 complete control
[23] = Rate 64 g/ha, 0 no injury, 100 complete control
[24] = Rate 125 g/ha, 0 no injury, 100 complete control
[25] = Rate 62 g/ha, 0 to 100 scale, 0 no effect, 100 complete control
[26] = Rate 125 g/ha, 0 to 100 scale (0 no effect, 100 complete control)

CC(C)N(C(=O)n1oc(=O)n(C2CCC2)c1=O)c1ccc(Cl)cc1 [Compound 349]
60: Plant response rating, Dallisgrass [4, 24]
90: Plant response rating, Dallisgrass ([4]; Rate 250 g/ha)
50: Plant response rating, Com. groundsel ([2]; Rate 250 g/ha)
20: Plant response rating, Com. groundsel [2, 24]
0: Plant response rating, Purple nutsedge [1, 21] | Plant response rating, Purple nutsedge [1, 22] | Purple nutsedge plant response rating [1, 23] | Purple nutsedge plant response rating [1, 24] | Plant response rating, Purple nutsedge ([1]; Rate 250 g/ha) | Plant response rating, Spanishneedles [3, 21] | Plant response rating, Spanishneedles [3, 22] | Spanishneedles plant response rating [3, 23] | Spanishneedles plant response rating [3, 24] | Plant response rating, Spanishneedles ([3]; Rate 250 g/ha) | Plant response rating, Dallisgrass [4, 21] | Plant response rating, Dallisgrass [4, 22] | Plant response rating, Dallisgrass [4, 23] | Plant response rating, P. morninglory [5, 21] | Plant response rating, P. morninglory [5, 22] | Plant response rating, P. morninglory [5, 23] | Plant response rating, P. morninglory [5, 24] | Plant response rating, P. morninglory ([5]; Rate 250 g/ha) | Plant response rating, Green foxtail ([6]; Rate 16 g/ha) | Plant response rating, Green foxtail ([6]; Rate 32 g/ha) | Plant response rating, Tall Mallow [7, 21] | Plant response rating, Tall Mallow [7, 22] | Tall Mallow plant response rating [7, 23] | Tall Mallow plant response rating [7, 24] | Plant response rating, Tall Mallow ([7]; Rate 250 g/ha)

CC(C)N(C(=O)n1oc(=O)n(Cc2cccs2)c1=O)c1ccccc1 [Compound 103]
0: Plant response rating Cotton ([8]; Rate 140 g/ha) | Plant response rating, Giant foxtail ([9]; Rate 140 g/ha) | Plant response rating, Giant foxtail ([9]; Rate 280 g/ha) | Plant response rating, Giant foxtail ([9]; Rate 560 g/ha) | Plant response rating Ladysthumb ([10]; Rate 140 g/ha) | Plant response rating Ladysthumb ([10]; Rate 280 g/ha)
40: Plant response rating Cotton ([8]; Rate 560 g/ha) | Plant response rating, Giant foxtail ([9]; Rate 1120 g/ha)
20: Plant response rating Cotton ([8]; Rate 280 g/ha)
80: Plant response rating Cotton ([8]; Rate 1120 g/ha)
10: Plant response rating Ladysthumb ([10]; Rate 560 g/ha) | Plant response rating Ladysthumb ([10]; Rate 1120 g/ha)

CCn1c(=O)on(C(=O)N(c2ccc(Cl)cc2)C(C)C)c1=O [Compound 108]
20: Plant response rating, Kochia ([11]; Rate 62 g/ha, 0 to 100 scale) | Plant response rating, Annual bluegras [18, 25]
100: Plant response rating, Lambsquarters [15, 26]
70: Plant response rating, Redroot pigweed [14, 25]
85: Plant response rating, Blk nightshade [13, 26]
40: Plant response rating, Kochia ([11]; Rate 125 g/ha, 0 to 100 scale) | Plant response rating, Deadnettle ([12]; Rate 250 g/ha, 0 to 100 scale) | Plant response rating, Rape [19, 25] | Plant response rating, Sugar beet [20, 26]
50: Plant response rating, Blk nightshade [13, 25] | Plant response rating, Galium [16, 26] | Plant response rating, Rape ([19]; Rate 250 g/ha, 0 to 100 scale)
80: Plant response rating, Lambsquarters [15, 25]
30: Plant response rating, Kochia ([11]; Rate 250 g/ha, 0 to 100 scale (0 no effect, 100 complete control))
0: Plant response rating, Sunflower [17, 25] | Plant response rating, Sunflower [17, 26]
90: Plant response rating, Blk nightshade ([13]; Rate 250 g/ha, 0 to 100 scale) | Plant response rating, Redroot pigweed [14, 26] | Plant response rating, Redroot pigweed ([14]; Rate 250 g/ha, 0 to 100 scale) | Plant response rating, Lambsquarters ([15]; Rate 250 g/ha, 0 to 100 scale)
60: Plant response rating, Annual bluegras [18, 26] | Plant response rating, Annual bluegras ([18]; Rate 250 g/ha, 0 to 100 scale) | Plant response rating, Rape [19, 26] | Plant response rating, Sugar beet [20, 25] | Plant response rating, Sugar beet ([20]; Rate 250 g/ha, 0 to 100 scale)
10: Plant response rating, Deadnettle [12, 25] | Plant response rating, Deadnettle [12, 26] | Plant response rating, Sunflower ([17]; Rate 250 g/ha, 0 to 100 scale)
95: Plant response rating, Galium [16, 25] | Plant response rating, Galium ([16]; Rate 250 g/ha, 0 to 100 scale)

CC(C)N(C(=O)n1oc(=O)n(C2CCC2)c1=O)c1ccccc1 [Compound 348]
90: Plant response rating, Dallisgrass [4, 23]
50: Plant response rating, Com. groundsel [2, 23] | Plant response rating, Dallisgrass [4, 22]
30: Plant response rating, Com. groundsel [2, 21]
20: Plant response rating, Green foxtail ([6]; Rate 32 g/ha) | Tall Mallow plant response rating [7, 24]
100: Plant response rating, Com. groundsel [2, 24] | Plant response rating, Com. groundsel ([2]; Rate 250 g/ha) | Plant response rating, Dallisgrass [4, 24] | Plant response rating, Dallisgrass ([4]; Rate 250 g/ha)
40: Plant response rating, Tall Mallow ([7]; Rate 250 g/ha)
0: Plant response rating, Purple nutsedge [1, 21] | Plant response rating, Purple nutsedge [1, 22] | Purple nutsedge plant response rating [1, 23] | Purple nutsedge plant response rating [1, 24] | Plant response rating, Purple nutsedge ([1]; Rate 250 g/ha) | Plant response rating, Spanishneedles [3, 21] | Plant response rating, Spanishneedles [3, 22] | Spanishneedles plant response rating [3, 23] | Spanishneedles plant response rating [3, 24] | Plant response rating, Spanishneedles ([3]; Rate 250 g/ha) | Plant response rating, Dallisgrass [4, 21] | Plant response rating, P. morninglory [5, 21] | Plant response rating, P. morninglory [5, 22] | Plant response rating, P. morninglory [5, 23] | Plant response rating, P. morninglory [5, 24] | Plant response rating, P. morninglory ([5]; Rate 250 g/ha) | Plant response rating, Green foxtail ([6]; Rate 16 g/ha) | Plant response rating, Tall Mallow [7, 21] | Plant response rating, Tall Mallow [7, 22] | Tall Mallow plant response rating [7, 23]

— patent US6737383B1, “Herbicidal oxadiazolidines” (priority 1999, dated 2004)
